Results reported in patent US8192935B2, “Methods for assessing cisplatin resistance, disease progression, and treatment efficacy in ovarian cancer as related to MetAP2 expression” (The Penn State Research Foundation, priority 2003, dated 2012).
Several values for one entry are separate records, joined by “and”; a condition that tells them apart may be missing. Equal values may be shown once. Read-outs that look alike come from different tables or passages of the source.

Columns and labels:
OVCA 429 cells = conditions: for 429: increased sensitivity to cis-platin: OVCA 429 cells with specific siRNA
OVCAR-3 cells [1] = test: tumor growth of OVCAR-3 cells in nude mice; assay type: in vivo; conditions: cis-platin 4 μg/kg IP 3 times a week for 2 weeks, then 1 week no treatment; one mouse
Description: The following protocol was developed for examining tumor growth using OVCAR-3 cells and nude mice: OVCAR-3 cells (15 million/injection) were inoculated under upper arm region of nude mice. Visible lumps appeared after 25 days. The tumors were measurable at about 35 days after inoculation and animals were then either treated with cis-platin at 4 μg/kg body weight administered by IP injection 3 times a week for 2 weeks, followed by 1 week with no treatment or treated with saline solution alone as control. […] A photograph of the tumors before and after cis-platin treatment is also shown.

OVCAR-3 cells [2] = test: MTT assay, cis-platin sensitivity with siRNA; assay type: cell-based, human; conditions: OVCAR-3 cells with specific siRNA
[3] = test system: zinc finger protein 262/MYM (AB007885); test: siRNA-mediated knockdown of gene expression; assay type: cell-based, human; conditions: OVCA 429 cells
eIF5 (U49436) = test: siRNA-mediated knockdown of gene expression; assay type: cell-based, human; conditions: OVCA 429 cell

Molecule	IC50 (OVCA 429 cells; read-out: IC50 of cis-platin alone, OVCA 429, 4 hours exposure (FIG. 40)) [µM]	IC50 (OVCA 429 cells; read-out: IC50 of cis-platin, controls without specific siRNA or inhibitor, OVCA 429, 24 hour exposure, siPORT only or sense strand only)	tumor size (OVCAR-3 cells [1])	OVCAR-3: increased sensitivity to cis-platin (OVCAR-3 cells [2])	reduction of zinc finger protein 262/MYM mRNA levels compared to control [3]	429: increased sensitivity to cis-platin (OVCA 429 cells)	reduction of eIF5 mRNA levels compared to control (eIF5 (U49436))
N.N.[Cl][Pt][Cl] [cis-platin]	~100	25 to 50 µM and 25 µM and ~25 µM	stabilization of the tumor size				
Zinc finger protein 262/MYM siRNA #3: siRNA to zinc finger protein 262/MYM; target sequence AAAATATGGGAACCTACAATA (guide AAAATATGGGAACCTACAATA; target site or template, no part of the molecule; listed as DNA, chemistry not given here; listed as Homo Sapiens)				yes	approximately 45%	yes	
eIF5 siRNA #1: siRNA to eIF5; target sequence AATGACCGTTACATTGTCAAT (guide AATGACCGTTACATTGTCAAT; target site or template, no part of the molecule; listed as DNA, chemistry not given here; listed as Homo Sapiens)				yes		yes	approximately 59%
